Test results reported in patent publication US6030963A, “16-ene-26,27-bishomo cholecalciferols” (Hoffmann-La Roche Inc., priority 1998, dated 2000).

Experiments:
HL-60 cells = assay: HL-60 cell differentiation (NBT reduction, oxidative burst potential); type: cell-based; conditions: Homo sapiens, 72 h, 3 days incubation, NBT reduction at 540 nm, mean of 3 wells, S.E.M. between 5 and 10%, read-out: ED50 (concentration leading to 50% of maximal differentiation achieved with 100-1000 nM calcitriol)
Procedure: HL-60 Cell Differentiation
The induction of differentiation of HL-60 cells was assayed by measuring their oxidative burst potential via the reduction of nitrobluetetrazolium (NBT).
HL-60 cells (30,000 cells in 90 μl of supplemented RPMI medium) were seeded into flat-bottomed microliter wells. Immediately after seeding, 10 μl of test compounds listed below in Table I diluted in supplemented RPMI medium were added to the wells to yield final concentrations of between 10^-11 and 10^-6 M (starting from stock solutions of 10^-2 M in ethanol, stored at -20° C. and protected from light). After 3 days, medium was removed from the wells with a multichannel pipette and replaced with 100 μl of NBT solution (1 mg/ml in phosphate buffered saline with 200 nM phorbol myristate acetate). Following an additional hour incubation at 37° C. the NBT solution was removed and 100 μl of 10% sodium dodecyl sulfate in 0.01 N HCl was added. The amount of the reduced NBT was quantified photometrically at 540 nm using an automated plate reader. The mean of 3 wells was calculated. […] Values were expressed as percent of maximal differentiation achieved with 100-1000 nM calcitriol in the same experiment.

[1] = Calcium tolerance test in mice (weight gain, highest tolerated dose); conditions: mouse, in vivo, sc, daily subcutaneous, 4 consecutive days, body weight before and at end of 5 day treatment period, read-out: HTD (highest tolerated dose: dose which results in zero weight gain during treatment period)
Source text: Calcium Tolerance Test In Mice
Profound changes in calcium homeostasis strongly affect the weight development of mice.
Mice (25-30 g body weight) received daily subcutaneous administrations of the compound for 4 consecutive days. Body weight was registered just before and at the end of a […] treatment period. The "highest tolerated dose" (HTD) is the dose which results in zero weight gain during this treatment period.

Structure (SMILES): C=C1/C(=C\C=C2/CCC[C@]3(C)C([C@H](C)C/C=C/C(O)(CC)CC)=CC[C@@H]23)C[C@@H](O)C[C@@H]1O [1,25-Dihydroxy-16,23E-diene-26,27-bishomo-cholecalciferol]
- EC50 (HL-60 cells): 3.8 nM
- MTD [1]: 2 µg/kg

Structure (SMILES): C=C1/C(=C\C=C2/CCC[C@]3(C)C([C@H](C)C/C=C\C(O)(CC)CC)=CC[C@@H]23)C[C@@H](O)C[C@@H]1O [1,25-Dihydroxy-16,23Z-diene-26,27-bishomo-cholecalciferol]
- EC50 (HL-60 cells): 6.2 nM
- MTD [1]: 2.5 µg/kg

Structure (SMILES): C=C1/C(=C\C=C2/CCC[C@]3(C)C([C@H](C)CC#CC(O)(CC)CC)=CC[C@@H]23)C[C@@H](O)C[C@@H]1O [1,25-Dihydroxy-16-ene-23-yne-26,27-bishomo-cholecalciferol]
- EC50 (HL-60 cells): 2.5 nM
- MTD [1]: 4 µg/kg
